Laboratory results: article PMC11672637, “7-O-Carboxylic Acid-Substituted 3-O-Alkyl Difluoroquercetin; An Aztreonam-Potentiating Agent Against Carbapenemase-Producing Pseudomonas aeruginosa Through Simultaneous Inhibition of Metallo-β-Lactamase and Efflux Pump” (Antibiotics, 2024)
Converted amounts (≈) assume the structure as drawn. Like-named read-outs stand apart in the source and are kept apart here.

Tests used:
Type in all cases: cell-based, P. aeruginosa
[1] = test system: ATM-Resistant CPPA (n = 15); assay: MIC distribution over clinical isolates; conditions: for inhibition at 1 µg/mL / inhibition at 2 µg/mL / inhibition at 4 µg/mL / inhibition at 8 µg/mL / inhibition at 16 µg/mL / inhibition at 32 µg/mL / inhibition at 64 µg/mL / MIC50 / MIC90: Pseudomonas aeruginosa; for inhibition at 1 µg/mL: read-out: Cumulative % inhibition by ATM, 5 at 1 mg/L; for inhibition at 2 µg/mL: read-out: Cumulative % inhibition by ATM, 5 at 2 mg/L; for inhibition at 4 µg/mL: read-out: Cumulative % inhibition by ATM, 5 at 4 mg/L; for inhibition at 8 µg/mL: read-out: Cumulative % inhibition by ATM, 5 at 8 mg/L; for inhibition at 16 µg/mL: read-out: Cumulative % inhibition by ATM, 5 at 16 mg/L; for inhibition at 32 µg/mL: read-out: Cumulative % inhibition by ATM, 5 at 32 mg/L; for inhibition at 64 µg/mL: read-out: Cumulative % inhibition by ATM, 5 at 64 mg/L
PA-034, blaNDM = assay: MIC / checkerboard with ATM; conditions: for MIC: Pseudomonas aeruginosa, read-out: MIC of ATM with 5, PA-034
PA-021, blaIMP = assay: MIC / checkerboard with ATM; conditions: for MIC: Pseudomonas aeruginosa, read-out: MIC of ATM with 5, PA-021
PA-003, blaVIM = assay: MIC / checkerboard with ATM; conditions: PA-003

## CC(C)(C)CCOc1c(-c2ccc(F)c(F)c2)oc2cc(OCC(=O)O)cc(O)c2c1=O [Compound 5, 2-((2-(3,4-Difluorophenyl)-3-(3,3-dimethylbutoxy)-5-hydroxy-4-oxo-4H-chromen-7-yl)oxy)acetic Acid]
[1]
  ATM-non-susceptible pathogens (MIC ≥ 16 mg/L) converted into sensitive ones by combination with 5: 14 out of 15
[1]; ATM 0.5 mg/L
  inhibition at 1 µg/mL: 0%
  inhibition at 2 µg/mL: 0%
  inhibition at 4 µg/mL: 0%
  inhibition at 8 µg/mL: 0%
  inhibition at 16 µg/mL: 0%
  inhibition at 32 µg/mL: 0%
  inhibition at 64 µg/mL: 0%
[1]; ATM 1 mg/L
  inhibition at 1 µg/mL: 0%
  inhibition at 2 µg/mL: 0%
  inhibition at 4 µg/mL: 0%
  inhibition at 8 µg/mL: 0%
  inhibition at 16 µg/mL: 0%
  inhibition at 32 µg/mL: 0%
  inhibition at 64 µg/mL: 7%
[1]; ATM 2 mg/L
  inhibition at 1 µg/mL: 0%
  inhibition at 2 µg/mL: 0%
  inhibition at 4 µg/mL: 0%
  inhibition at 8 µg/mL: 0%
  inhibition at 16 µg/mL: 13%
  inhibition at 32 µg/mL: 20%
  inhibition at 64 µg/mL: 27%
[1]; ATM 4 mg/L
  inhibition at 1 µg/mL: 0%
  inhibition at 2 µg/mL: 0%
  inhibition at 4 µg/mL: 7%
  inhibition at 8 µg/mL: 47%
  inhibition at 16 µg/mL: 67%
  inhibition at 32 µg/mL: 80%
  inhibition at 64 µg/mL: 87%
[1]; ATM 8 mg/L
  inhibition at 1 µg/mL: 7%
  inhibition at 2 µg/mL: 7%
  inhibition at 4 µg/mL: 67%
  inhibition at 8 µg/mL: 80%
  inhibition at 16 µg/mL: 93%
  inhibition at 32 µg/mL: 93%
  inhibition at 64 µg/mL: 93%
[1]; ATM 16 mg/L
  inhibition at 1 µg/mL: 67%
  inhibition at 2 µg/mL: 87%
  inhibition at 4 µg/mL: 100%
  inhibition at 8 µg/mL: 100%
  inhibition at 16 µg/mL: 100%
  inhibition at 32 µg/mL: 100%
  inhibition at 64 µg/mL: 100%
[1]; ATM 32 mg/L
  inhibition at 1 µg/mL: 100%
  inhibition at 2 µg/mL: 100%
  inhibition at 4 µg/mL: 100%
  inhibition at 8 µg/mL: 100%
  inhibition at 16 µg/mL: 100%
  inhibition at 32 µg/mL: 100%
  inhibition at 64 µg/mL: 100%
[1]; ATM 64 mg/L
  inhibition at 1 µg/mL: 100%
  inhibition at 2 µg/mL: 100%
  inhibition at 4 µg/mL: 100%
  inhibition at 8 µg/mL: 100%
  inhibition at 16 µg/mL: 100%
  inhibition at 32 µg/mL: 100%
  inhibition at 64 µg/mL: 100%
[1]; read-out: MIC50 of ATM, 5 at 1 mg/L
  MIC50: 16 µg/mL (≈ 35.7 µM)
[1]; read-out: MIC50 of ATM, 5 at 2 mg/L
  MIC50: 16 µg/mL (≈ 35.7 µM)
[1]; read-out: MIC50 of ATM, 5 at 4 mg/L
  MIC50: 8 µg/mL (≈ 17.8 µM)
[1]; read-out: MIC50 of ATM, 5 at 8 mg/L
  MIC50: 8 µg/mL (≈ 17.8 µM)
[1]; read-out: MIC50 of ATM, 5 at 16 mg/L
  MIC50: 4 µg/mL (≈ 8.92 µM)
[1]; read-out: MIC50 of ATM, 5 at 32 mg/L
  MIC50: 4 µg/mL (≈ 8.92 µM)
[1]; read-out: MIC50 of ATM, 5 at 64 mg/L
  MIC50: 4 µg/mL (≈ 8.92 µM)
[1]; read-out: MIC90 of ATM, 5 at 1 mg/L
  MIC90: 32 µg/mL (≈ 71.4 µM)
[1]; read-out: MIC90 of ATM, 5 at 2 mg/L
  MIC90: 32 µg/mL (≈ 71.4 µM)
[1]; read-out: MIC90 of ATM, 5 at 4 mg/L
  MIC90: 16 µg/mL (≈ 35.7 µM)
[1]; read-out: MIC90 of ATM, 5 at 8 mg/L
  MIC90: 16 µg/mL (≈ 35.7 µM)
[1]; read-out: MIC90 of ATM, 5 at 16 mg/L
  MIC90: 16 µg/mL (≈ 35.7 µM)
[1]; read-out: MIC90 of ATM, 5 at 32 mg/L
  MIC90: 16 µg/mL (≈ 35.7 µM)
[1]; read-out: MIC90 of ATM, 5 at 64 mg/L
  MIC90: 16 µg/mL (≈ 35.7 µM)
PA-034, blaNDM; PA-034
  Activity (FICI class): S (S (Synergy, FICI ≤ 0.5))
  Concentrations of ATM and 5 at lowest FICI (ATM/5): 4/8
  Lowest FICI (ATM/5): 0.27
  Minimum concentration of 5 to make sensitive to ATM: 4 mg/L
PA-034, blaNDM; PA-034, ATM/5
  Susceptibility to ATM: S (S (sensitive, MIC ≤ 8 mg/L))
PA-034, blaNDM; PA-034, lowest-FICI combination
  FD (fold decrease in MIC of ATM with 5): 4
PA-034, blaNDM; 5 at 1 mg/L
  MIC: 16 µg/mL
PA-034, blaNDM; 5 at 2 mg/L
  MIC: 16 µg/mL
PA-034, blaNDM; 5 at 4 mg/L
  MIC: 8 µg/mL
PA-034, blaNDM; 5 at 8 mg/L
  MIC: 4 µg/mL
PA-034, blaNDM; 5 at 16 mg/L
  MIC: 4 µg/mL
PA-034, blaNDM; 5 at 32 mg/L
  MIC: 4 µg/mL
PA-034, blaNDM; 5 at 64 mg/L
  MIC: 4 µg/mL
PA-021, blaIMP; PA-021
  Activity (FICI class): I (I (indifference, 0.5 < FICI ≤ 4))
  Lowest FICI (ATM/5): 0.50
PA-021, blaIMP; PA-021, ATM/5
  Susceptibility to ATM: S (S (sensitive, MIC ≤ 8 mg/L))
PA-021, blaIMP; PA-021, lowest-FICI combination
  FD (fold decrease in MIC of ATM with 5): 2
PA-021, blaIMP; 5 at 1 mg/L
  MIC: 1 µg/mL
PA-021, blaIMP; 5 at 2 mg/L
  MIC: 0.5 µg/mL
PA-021, blaIMP; 5 at 4 mg/L
  MIC: 0.5 µg/mL
PA-021, blaIMP; 5 at 8 mg/L
  MIC: 0.5 µg/mL
PA-021, blaIMP; 5 at 16 mg/L
  MIC: 0.5 µg/mL
PA-021, blaIMP; 5 at 32 mg/L
  MIC: 0.5 µg/mL
PA-021, blaIMP; 5 at 64 mg/L
  MIC: 0.5 µg/mL
PA-003, blaVIM
  Activity (FICI class): I (I (indifference, 0.5 < FICI ≤ 4))
  Concentrations of ATM and 5 at lowest FICI (ATM/5): 16/1
  Minimum concentration of 5 to make sensitive to ATM: 1 mg/L
PA-003, blaVIM; 5 at 2 mg/L
  MIC of ATM with 5: 16 µg/mL
PA-003, blaVIM; 5 at 4 mg/L
  MIC of ATM with 5: 16 µg/mL
PA-003, blaVIM; 5 at 8 mg/L
  MIC of ATM with 5: 16 µg/mL
PA-003, blaVIM; 5 at 16 mg/L
  MIC of ATM with 5: 16 µg/mL
PA-003, blaVIM; 5 at 32 mg/L
  MIC of ATM with 5: 16 µg/mL
PA-003, blaVIM; 5 at 64 mg/L
  MIC of ATM with 5: 16 µg/mL
PA-003, blaVIM; ATM/5
  Susceptibility to ATM: I (I (intermediate, MIC = 16 mg/L))
PA-003, blaVIM; lowest-FICI combination
  FD (fold decrease in MIC of ATM with 5): 2
PA-003, blaVIM; Pseudomonas aeruginosa, read-out: MIC of ATM with 5, 5 at 1 mg/L
  MIC: 16 µg/mL
